Results: patent publication US12024506B2, “Compounds” (Oxford University Innovation Limited, priority 2018, dated 2024)

Assays:
[1] = biological target: T1, GST-human KRas166 (G12V) GPPNHP (Homo sapiens, UniProt P01116, G12V); assay: KRas small-molecule screening by SPR (Biacore T200); assay type: binding; details: compound 100 uM, 5% DMSO buffer; immobilised GST-KRas166 (G12V) GPPNHP
T1 construct: made in house; host or cells: E. coli C41(DE3)
Summary of the method: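 Biacore T200 screen: compounds at 100 uM final in 5% DMSO buffer (100 mM NaCl, 5 mM MgCl2) over GPPNHP-bound GST-KRas166 G12V captured by anti-GST antibody (10,000–15,000 RU) versus GST-only channel. Expected 1:1 Rmax 63 RU; DMSO solvent correction applied.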

[2] = test system: H358 cells (ATCC CRL-5807); assay: Cell viability assay 1 (CellTiter-Glo), H358 cells; assay type: cell-based; details: Homo sapiens, NCI-H358, 48 h, first value of the cell, read-out: Cell Viability H358 (concentration that decreases cell viability by 50%)
Summary of the method: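 H358 cells were grown in RPMI-1640 with 10% FCS and 2 mM L-glutamine, plated at 5000 cells/well and allowed to adhere overnight. Compound was added in 0.5% DMSO final for 48 h at 37° C. Viability was read by CellTiter-Glo luminescence, with the 50% viability-reducing concentration derived from dose-response curves.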

[3] = test system: DLD1 cells (ATCC CCL-221); assay: Cell viability assay 1 (CellTiter-Glo), DLD1 cells; assay type: cell-based; details: Homo sapiens, DLD-1 cells, 48 h, second value of the cell, read-out: Cell Viability DLD-1 (concentration that decreases cell viability by 50%)
Summary of the method: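 DLD1 cells grown in RPMI-1640 with 10% FCS, 2 mM L-glutamine, 37 °C, 5% CO2, plated overnight then exposed to compound (0.5% DMSO) for 48 h. Viability by CellTiter-Glo luminescence; value is concentration reducing viability by 50% from dose-response curves.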

Structure (SMILES)	SPR Response Units [1]	IC50 [2]	IC50 [3]
COc1nc(-c2cccc3c2OCCO3)ccc1Nc1cccc(CNCC2CCN(C)CC2)c1 [Example 189, [6-(2,3-Dihydro-benzo[1,4]dioxin-5-yl)-2-methoxy-pyridin-3-yl]-(3-{[(1-methyl-piperidin-4-ylmethyl)-amino]-methyl}-phenyl)-amine]	552 Response Units	44.9 µM	1.4 µM
COc1nc(-c2cccc3c2OCCO3)ccc1Nc1cccc(CNCC2CCN(C(C)=O)CC2)c1 [Example 191, 1-[4-({3-[6-(2,3-Dihydro-benzo[1,4]dioxin-5-yl)-2-methoxy-pyridin-3-ylamino]-benzylamino}-methyl)-piperidin-1-yl]-ethanone]	327 Response Units	91.8 µM	7.9 µM
COc1nc(-c2cccc3c2OCCO3)ccc1Nc1cccc(CNCC2CCC(=O)N2)c1 (stereo not drawn) [Example 192, 5-({3-[6-(2,3-Dihydro-benzo[1,4]dioxin-5-yl)-2-methoxy-pyridin-3-ylamino]-benzylamino}-methyl)-pyrrolidin-2-one]	321 Response Units	> 150 µM	11.4 µM
COc1nc(-c2cccc3c2OCCO3)ccc1Nc1cccc(CNCc2cc[nH]c(=O)c2)c1 [Example 193, 4-({3-[6-(2,3-Dihydro-benzo[1,4]dioxin-5-yl)-2-methoxy-pyridin-3-ylamino]-benzylamino}-methyl)-1H-pyridin-2-one]	388 Response Units	52.5 µM	14.8 µM
COc1nc(-c2cccc3c2OCCO3)ccc1Nc1cccc(CNCC2CCNC(=O)C2)c1 (stereo not drawn) [Example 194, 4-({3-[6-(2,3-Dihydro-benzo[1,4]dioxin-5-yl)-2-methoxy-pyridin-3-ylamino]-benzylamino}-methyl)-piperidin-2-one]	359 Response Units	> 150 µM	11.2 µM
COc1nc(-c2cccc3c2OCCO3)ccc1Nc1ccc(CC(=O)NCC2CCN(C)CC2)cc1 [Example 197, 2-{4-[6-(2,3-Dihydro-benzo[1,4]dioxin-5-yl)-2-methoxy-pyridin-3-ylamino]-phenyl}-N-(1-methyl-piperidin-4-ylmethyl)-acetamide]	453 Response Units	> 150 µM	15.9 µM
COc1nc(-c2cccc3c2OCCO3)ccc1Nc1ccc(CC(=O)N2CCN(C)CC2)cc1 [Example 198, 2-{4-[6-(2,3-Dihydro-benzo[1,4]dioxin-5-yl)-2-methoxy-pyridin-3-ylamino]-phenyl}-1-(4-methyl-piperazin-1-yl)-ethanone]	330 Response Units	1.57 µM	21.8 µM
COc1nc(-c2cccc3c2OCCO3)ccc1Nc1cccc(CC(=O)NC2CCN(C)CC2)c1 [Example 203, 2-{3-[6-(2,3-Dihydro-benzo[1,4]dioxin-5-yl)-2-methoxy-pyridin-3-ylamino]-phenyl}-N-(1-methyl-piperidin-4-yl)-acetamide]	339 Response Units	33.7 µM	12.2 µM
COc1nc(-c2cccc3c2OCCO3)ccc1Nc1cccc(CC(=O)N2CCN(C)CC2)c1 [Example 204, 2-{3-[6-(2,3-Dihydro-benzo[1,4]dioxin-5-yl)-2-methoxy-pyridin-3-ylamino]-phenyl}-1-(4-methyl-piperazin-1-yl)-ethanone]	423 Response Units	19.8 µM	17.6 µM

More lines, in order of falling IC50 [2], values ahead:

SPR Response Units [1]	IC50 [2]	IC50 [3]	Structure (SMILES)
194 Response Units	30.6 µM	7.2 µM	COc1nc(-c2cccc3c2OCCO3)ccc1Nc1ccc(C(=O)NCC2CCNC(=O)C2)cc1 (stereo not drawn) [Example 196, 4-[6-(2,3-Dihydro-benzo[1,4]dioxin-5-yl)-2-methoxy-pyridin-3-ylamino]-N-(2-oxo-piperidin-4-ylmethyl)-benzamide]
93 Response Units	24.2 µM	6.5 µM	COc1nc(-c2cccc3c2OCCO3)ccc1Nc1ccc(CN2CCN(Cc3cccnc3)CC2)cc1 [Example 199, [6-(2,3-Dihydro-benzo[1,4]dioxin-5-yl)-2-methoxy-pyridin-3-yl]-[4-(4-pyridin-3-ylmethyl-piperazin-1-ylmethyl)-phenyl]-amine]
387 Response Units	17.5 µM	10.5 µM	COc1nc(-c2cccc3c2OCCO3)ccc1Nc1cccc(CC(=O)NCC2CCN(C)CC2)c1 [Example 202, 2-{3-[6-(2,3-Dihydro-benzo[1,4]dioxin-5-yl)-2-methoxy-pyridin-3-ylamino]-phenyl}-N-(1-methyl-piperidin-4-ylmethyl)-acetamide]
1266 Response Units	17.4 µM	5.8 µM	COc1nc(-c2cccc3c2OCCO3)ccc1Nc1cccc(CN2CCN(Cc3cn[nH]c3)CC2)c1 [Example 208, [6-(2,3-Dihydro-benzo[1,4]dioxin-5-yl)-2-methoxy-pyridin-3-yl]-{3-[4-(1H-pyrazol-4-ylmethyl)-piperazin-1-ylmethyl]-phenyl}-amine]
310 Response Units	13.4 µM	14.7 µM	COc1nc(-c2cccc3c2OCCO3)ccc1Nc1cccc(CNCc2cc[nH]n2)c1 [Example 209, [6-(2,3-Dihydro-benzo[1,4]dioxin-5-yl)-2-methoxy-pyridin-3-yl]-(3-{[(1H-pyrazol-3-ylmethyl)-amino]-methyl}-phenyl)-amine]
176 Response Units	13 µM	3.8 µM	COc1nc(-c2cccc3c2OCCO3)ccc1Nc1cccc(CNCC2CCC(=O)NC2)c1 (stereo not drawn) [Example 195, 5-({3-[6-(2,3-Dihydro-benzo[1,4]dioxin-5-yl)-2-methoxy-pyridin-3-ylamino]-benzylamino}-methyl)-piperidin-2-one]
142 Response Units	12.2 µM	51.6 µM	COc1nc(-c2cccc3c2OCCO3)ccc1Nc1cccc(CC(=O)NC2CCNC(=O)C2)c1 (stereo not drawn) [Example 205, 2-{3-[6-(2,3-Dihydro-benzo[1,4]dioxin-5-yl)-2-methoxy-pyridin-3-ylamino]-phenyl}-N-(2-oxo-piperidin-4-yl)-acetamide]
151 Response Units	11 µM	35.9 µM	COc1nc(-c2cccc3c2OCCO3)ccc1Nc1cccc(CC(=O)NC2CCC(=O)NC2)c1 (stereo not drawn) [Example 206, 2-{3-[6-(2,3-Dihydro-benzo[1,4]dioxin-5-yl)-2-methoxy-pyridin-3-ylamino]-phenyl}-N-(6-oxo-piperidin-3-yl)-acetamide]
665 Response Units	8.6 µM	1.6 µM	COc1nc(-c2cccc3c2OCCO3)ccc1Nc1cccc(CNCC2CCN(Cc3ccccc3)CC2)c1 [Example 190, (3-{[(1-Benzyl-piperidin-4-ylmethyl)-amino]-methyl}-phenyl)-[6-(2,3-dihydro-benzo[1,4]dioxin-5-yl)-2-methoxy-pyridin-3-yl]-amine]
209 Response Units	6.8 µM	10.5 µM	COc1nc(-c2cccc3c2OCCO3)ccc1Nc1ccc(CNCC2CCNC(=O)C2)cc1 (stereo not drawn) [Example 201, 4-({4-[6-(2,3-Dihydro-benzo[1,4]dioxin-5-yl)-2-methoxy-pyridin-3-ylamino]-benzylamino}-methyl)-piperidin-2-one]
1189 Response Units	5.8 µM	22 µM	COc1nc(-c2cccc3c2OCCO3)ccc1Nc1cccc(CN2CCNCC2)c1 [Example 207, [6-(2,3-Dihydro-benzo[1,4]dioxin-5-yl)-2-methoxy-pyridin-3-yl]-(3-piperazin-1-ylmethyl-phenyl)-amine]
424 Response Units	1.5 µM	8.6 µM	COc1nc(-c2cccc3c2OCCO3)ccc1Nc1cccc(CN2CCCC(C(N)=O)C2)c1 (stereo not drawn) [Example 200, 1-{3-[6-(2,3-Dihydro-benzo[1,4]dioxin-5-yl)-2-methoxy-pyridin-3-ylamino]-benzyl}-piperidine-3-carboxylic acid amide]
